{"source": "patent US7473789B2", "about": "“9-(1′,5′-dimethyl-1′-vinyl -4′- hexenyl)-4-hydroxy-7H-furo[3,2-γ] [1] benzopyran-7-one as antibacterial agent” (Takasago International Corporation, priority 2004, dated 2009)", "assay_type_in_all_cases": "cell-based", "key": {"[1]": {"test_system": "Staphyrococcus epidermidis JCM 2414", "experiment": "MIC by Agar Dilution Test, Se-1", "details": "read-out: Minimum inhibitory concentration (MIC)", "protocol": "(§1) Minimum inhibitory concentration (MIC) was determined by Agar Dilution Test (ADT).\n(§2) Samples were dissolved in ethanol or water (according to solubility of each sample) to carry out two-fold serial dilution. A hundred μl of the resultant was added to a 10 ml sterilized agar medium (skin-related bacteria and standard bacteria in Mueller-Hinton Medium (Difco), yeast and filamentous bacteria in Sabroud Medium (Difco) and anaerobic bacteria in Trypticase Soy agar(BBL)), well agitated, transferred to a 9 cmf petri dish and immobilized at room temperature. To this petri dish, a 27-spot microplanter MIT-P from Sakuma Seisakusho, LTD. was used to spot 1×10^5 cfu (colony forming unit) of skin-related bacteria and standard bacteria, and the resultants were cultured at 37° C. for 18 hours. Yeast and filamentous bacteria were spotted for 5000 cfu (except Cg-1 was 50˜100 cfu) and cultured at 27° C. for 72 hours. Anaerobic bacteria were cultured at 37° C. for 72 hours under anaerobic conditions (using BBL gas pack anaerobic system). After completion of cultivation, growth of each bacterium was compared with that in a petri dish with alcohol alone (blank). A concentration of a sample without a bacterium growth was determined as the minimum inhibitory concentration (MIC).\n(§3) As comparative substances, butylparaben (BPHB) and triclosan were determined as well."}, "[2]": {"test_system": "Staphyrococcus epidermidis var. h-6 Takasago isolate", "experiment": "MIC by Agar Dilution Test, Se-2", "details": "read-out: Minimum inhibitory concentration (MIC)", "protocol": "as §1, §2, §3"}, "[3]": {"test_system": "Corynebacterium minutissimum IFO 15361", "experiment": "MIC by Agar Dilution Test, Cm-1", "details": "read-out: Minimum inhibitory concentration (MIC)", "protocol": "as §1, §2, §3"}, "[4]": {"test_system": "Corynebacterium xerosis JCM 1324", "experiment": "MIC by Agar Dilution Test, Cx-2", "details": "read-out: Minimum inhibitory concentration (MIC)", "protocol": "as §1, §2, §3"}, "[5]": {"test_system": "Malassezia furfur IFO 0656", "experiment": "MIC by Agar Dilution Test, Mf-1", "details": "read-out: Minimum inhibitory concentration (MIC)", "protocol": "as §1, §2, §3"}, "[6]": {"test_system": "Staphyrococcus aureus 209P IAM 12082", "experiment": "MIC by Agar Dilution Test, Sa-3", "details": "read-out: Minimum inhibitory concentration (MIC)", "protocol": "as §1, §2, §3"}, "[7]": {"test_system": "Bacillus subtilis PCI 219 IFO 3134", "experiment": "MIC by Agar Dilution Test, Bs-1", "details": "read-out: Minimum inhibitory concentration (MIC)", "protocol": "as §1, §2, §3"}, "[8]": {"test_system": "Staphyrococcus epidermidis ATCC 12228", "experiment": "MIC by Agar Dilution Test, Se-3", "details": "read-out: Minimum inhibitory concentration (MIC)", "protocol": "as §1, §2, §3"}, "[9]": {"test_system": "Staphyrococcus aureus ATCC 6538", "experiment": "MIC by Agar Dilution Test, Sa-4", "details": "read-out: Minimum inhibitory concentration (MIC)", "protocol": "as §1, §2, §3"}, "[10]": {"test_system": "Propionibacterium acnes JCM 6473", "experiment": "MIC by Agar Dilution Test, Pa-2", "details": "Cutibacterium acnes, read-out: Minimum inhibitory concentration (MIC)", "protocol": "as §1, §2, §3"}, "[11]": {"test_system": "Propionibacterium acnes ATCC 6919", "experiment": "MIC by Agar Dilution Test, Pa-3", "details": "Cutibacterium acnes, read-out: Minimum inhibitory concentration (MIC)", "protocol": "as §1, §2, §3"}, "[12]": {"test_system": "Bacteroides fragilis GM 7000 JCM 5560", "experiment": "MIC by Agar Dilution Test, Bf-1", "details": "read-out: Minimum inhibitory concentration (MIC)", "protocol": "as §1, §2, §3"}, "[13]": {"test_system": "Streptococcus mutans JCM 5175", "experiment": "MIC by Agar Dilution Test, Su-1", "details": "read-out: Minimum inhibitory concentration (MIC)", "protocol": "as §1, §2, §3"}, "[14]": {"test_system": "Fusobacterium nucleatum JCM 6328", "experiment": "MIC by Agar Dilution Test, Fn-1", "details": "read-out: Minimum inhibitory concentration (MIC)", "protocol": "as §1, §2, §3"}, "[15]": {"test_system": "Porphyromonas gingivalis JCM 8525", "experiment": "MIC by Agar Dilution Test, Pg-1", "details": "read-out: Minimum inhibitory concentration (MIC)", "protocol": "as §1, §2, §3"}, "[16]": {"test_system": "Prevotella intermedia JCM 6322", "experiment": "MIC by Agar Dilution Test, Pt-1", "details": "read-out: Minimum inhibitory concentration (MIC)", "protocol": "as §1, §2, §3"}, "[17]": {"test_system": "Actinomyces naeslundii JCM 8350", "experiment": "MIC by Agar Dilution Test, Aa-1", "details": "read-out: Minimum inhibitory concentration (MIC)", "protocol": "as §1, §2, §3"}, "[18]": {"test_system": "Actinomyces viscosus JCM 8352", "experiment": "MIC by Agar Dilution Test, Av-1", "details": "read-out: Minimum inhibitory concentration (MIC)", "protocol": "as §1, §2, §3"}}, "note": "Where two headings read alike, the source gives them in different places."}
{"compound": "Oc1cc(Cl)ccc1Oc1ccc(Cl)cc1Cl", "note": "[Triclosan]", "values": [{"measurement": "MIC", "setting": "[1]; 18 h", "result": 1.6, "unit": "mg/L"}, {"measurement": "MIC", "setting": "[2]; 18 h", "result": 1.6, "unit": "mg/L"}, {"measurement": "MIC", "setting": "[3]; IFO15361, 18 h", "result": 1.6, "unit": "mg/L"}, {"measurement": "MIC", "setting": "[4]; JCM1324, 18 h", "result": 3.1, "unit": "mg/L"}, {"measurement": "MIC", "setting": "[5]; 72 h", "result": 1.6, "unit": "mg/L"}, {"measurement": "MIC", "setting": "[6]; 18 h", "result": 1.6, "unit": "mg/L"}, {"measurement": "MIC", "setting": "[7]; IFO3134, 18 h", "result": 0.78, "unit": "mg/L"}, {"measurement": "MIC", "setting": "[8]; 18 h", "result": 1.6, "unit": "mg/L"}, {"measurement": "MIC", "setting": "[9]; 18 h", "result": 1.6, "unit": "mg/L"}]}
{"compound": "CCCCOC(=O)c1ccc(O)cc1", "note": "[Butylparaben, butylparaben]", "values": [{"measurement": "MIC", "setting": "[1]; 18 h", "result": 200, "unit": "mg/L"}, {"measurement": "MIC", "setting": "[2]; 18 h", "result": 200, "unit": "mg/L"}, {"measurement": "MIC", "setting": "[3]; IFO15361, 18 h", "result": 200, "unit": "mg/L"}, {"measurement": "MIC", "setting": "[4]; JCM1324, 18 h", "result": 50, "unit": "mg/L"}, {"measurement": "MIC", "setting": "[5]; 72 h", "result": 100, "unit": "mg/L"}, {"measurement": "MIC", "setting": "[6]; 18 h", "result": 100, "unit": "mg/L"}, {"measurement": "MIC", "setting": "[7]; IFO3134, 18 h", "result": 200, "unit": "mg/L"}, {"measurement": "MIC", "setting": "[8]; 18 h", "result": 200, "unit": "mg/L"}, {"measurement": "MIC", "setting": "[9]; 18 h", "result": 200, "unit": "mg/L"}, {"measurement": "MIC", "setting": "[10]; JCM6473, 72 h", "result": 100, "unit": "mg/L"}, {"measurement": "MIC", "setting": "[11]; ATCC6919, 72 h", "result": 100, "unit": "mg/L"}, {"measurement": "MIC", "setting": "[12]; JCM5560, 72 h", "result": 50, "unit": "mg/L"}, {"measurement": "MIC", "setting": "[13]; JCM5175, 72 h", "result": 200, "unit": "mg/L"}, {"measurement": "MIC", "setting": "[14]; JCM6328, 72 h", "result": 100, "unit": "mg/L"}, {"measurement": "MIC", "setting": "[15]; JCM8525, 72 h", "result": 50, "unit": "mg/L"}, {"measurement": "MIC", "setting": "[16]; JCM6322, 72 h", "result": 100, "unit": "mg/L"}, {"measurement": "MIC", "setting": "[17]; JCM8350, 72 h", "result": 100, "unit": "mg/L"}, {"measurement": "MIC", "setting": "[18]; JCM8352, 72 h", "result": 100, "unit": "mg/L"}]}
{"compound": "C=CC(C)(CCC=C(C)C)c1c2occc2c(O)c2ccc(=O)oc12", "note": "(stereo not drawn) [9-(1′,5′-dimethyl-1′-vinyl-4′-hexenyl)-4-hydroxy-7H-furo[3,2-γ][1]benzopyran-7-one]", "values": [{"measurement": "MIC", "setting": "[1]; Se-1, Mueller-Hinton Medium, 1×10^5 cfu, 37° C. for 18 hours", "result": 3.1, "unit": "mg/L"}, {"measurement": "MIC", "setting": "[2]; Se-2, Mueller-Hinton Medium, 1×10^5 cfu, 37° C. for 18 hours", "result": 3.1, "unit": "mg/L"}, {"measurement": "MIC", "setting": "[3]; IFO15361, Cm-1, Mueller-Hinton Medium, 1×10^5 cfu, 37° C. for 18 hours", "result": 3.1, "unit": "mg/L"}, {"measurement": "MIC", "setting": "[4]; JCM1324, Cx-2, Mueller-Hinton Medium, 1×10^5 cfu, 37° C. for 18 hours", "result": 3.1, "unit": "mg/L"}, {"measurement": "MIC", "setting": "[5]; Mf-1 (yeast), Sabroud Medium, 5000 cfu, 27° C. for 72 hours", "result": 3.1, "unit": "mg/L"}, {"measurement": "MIC", "setting": "[6]; Sa-3, Mueller-Hinton Medium, 1×10^5 cfu, 37° C. for 18 hours", "result": 3.1, "unit": "mg/L"}, {"measurement": "MIC", "setting": "[7]; IFO3134, Bs-1, Mueller-Hinton Medium, 1×10^5 cfu, 37° C. for 18 hours", "result": 3.1, "unit": "mg/L"}, {"measurement": "MIC", "setting": "[8]; Se-3, Mueller-Hinton Medium, 1×10^5 cfu, 37° C. for 18 hours", "result": 3.1, "unit": "mg/L"}, {"measurement": "MIC", "setting": "[9]; Sa-4, Mueller-Hinton Medium, 1×10^5 cfu, 37° C. for 18 hours", "result": 3.1, "unit": "mg/L"}, {"measurement": "MIC", "setting": "[10]; JCM6473, Pa-2, Trypticase Soy agar, 37° C. for 72 hours, anaerobic conditions", "result": 3.1, "unit": "mg/L"}, {"measurement": "MIC", "setting": "[11]; ATCC6919, Pa-3, Trypticase Soy agar, 37° C. for 72 hours, anaerobic conditions", "result": 3.1, "unit": "mg/L"}, {"measurement": "MIC", "setting": "[12]; JCM5560, Bf-1, Trypticase Soy agar, 37° C. for 72 hours, anaerobic conditions", "result": 1.6, "unit": "mg/L"}, {"measurement": "MIC", "setting": "[13]; JCM5175, Su-1, Trypticase Soy agar, 37° C. for 72 hours, anaerobic conditions", "result": 6.3, "unit": "mg/L"}, {"measurement": "MIC", "setting": "[14]; JCM6328, Fn-1, Trypticase Soy agar, 37° C. for 72 hours, anaerobic conditions", "result": 1.6, "unit": "mg/L"}, {"measurement": "MIC", "setting": "[15]; JCM8525, Pg-1, Trypticase Soy agar, 37° C. for 72 hours, anaerobic conditions", "result": 1.6, "unit": "mg/L"}, {"measurement": "MIC", "setting": "[16]; JCM6322, Pt-1, Trypticase Soy agar, 37° C. for 72 hours, anaerobic conditions", "result": 1.6, "unit": "mg/L"}, {"measurement": "MIC", "setting": "[17]; JCM8350, Aa-1, Trypticase Soy agar, 37° C. for 72 hours, anaerobic conditions", "result": 3.1, "unit": "mg/L"}, {"measurement": "MIC", "setting": "[18]; JCM8352, Av-1, Trypticase Soy agar, 37° C. for 72 hours, anaerobic conditions", "result": 3.1, "unit": "mg/L"}]}
